What all share (assay): microbe, parasite or virus in culture
What all share (assay type): cell-based

In one experiment the test system is A/TX/36/91 (H1N1). The settings on record: Influenza A virus, H1N1, MDCK, 168 h.
The subject of another experiment is A/Perth/265/09 (H1N1). The settings on record: Influenza A virus, H1N1, MDCK, 168 h.
The test system of a further experiment is A/HK/1/68 (H3N2). The settings on record: Influenza A virus, H3N2, MDCK, 168 h.

Usually EC50 stands for the concentration giving half of the maximal effect. Low readings indicate a more potent agent, high ones a less potent agent. Regarding `CC(=O)N[C@H]1[C@H]([C@H](O)[C@H](O)CO)OC(C(=O)O)=C[C@@H]1N=C(N)N` [Zanamivir], the values for the EC50 in the experiment on A/TX/36/91 (H1N1), in the experiment with A/Perth/265/09 (H1N1) and with A/HK/1/68 (H3N2) were 731 nM, 1520 nM and 27.7 µM, respectively.

Values taken from patent US10966954B2, “Electrophilically enhanced phenolic compounds for treating inflammatory related diseases and disorders” (priority 2016, dated 2021).
